Experimental data taken from patent US12522598B2, “3-(2-(heteroaryl)-pyridin-4-yl)-5-(trifluoromethyl)-1,2,4-oxadiazole derivatives as HDAC6 inhibitors” (ORYZON GENOMICS, S.A., priority 2019, dated 2026).

Biological target: T1, HDAC6 (Homo sapiens, UniProt Q9UBN7)
T1 construct: purchased BPS Bioscience 50006
T1 sequence (Q9UBN7 1-1215): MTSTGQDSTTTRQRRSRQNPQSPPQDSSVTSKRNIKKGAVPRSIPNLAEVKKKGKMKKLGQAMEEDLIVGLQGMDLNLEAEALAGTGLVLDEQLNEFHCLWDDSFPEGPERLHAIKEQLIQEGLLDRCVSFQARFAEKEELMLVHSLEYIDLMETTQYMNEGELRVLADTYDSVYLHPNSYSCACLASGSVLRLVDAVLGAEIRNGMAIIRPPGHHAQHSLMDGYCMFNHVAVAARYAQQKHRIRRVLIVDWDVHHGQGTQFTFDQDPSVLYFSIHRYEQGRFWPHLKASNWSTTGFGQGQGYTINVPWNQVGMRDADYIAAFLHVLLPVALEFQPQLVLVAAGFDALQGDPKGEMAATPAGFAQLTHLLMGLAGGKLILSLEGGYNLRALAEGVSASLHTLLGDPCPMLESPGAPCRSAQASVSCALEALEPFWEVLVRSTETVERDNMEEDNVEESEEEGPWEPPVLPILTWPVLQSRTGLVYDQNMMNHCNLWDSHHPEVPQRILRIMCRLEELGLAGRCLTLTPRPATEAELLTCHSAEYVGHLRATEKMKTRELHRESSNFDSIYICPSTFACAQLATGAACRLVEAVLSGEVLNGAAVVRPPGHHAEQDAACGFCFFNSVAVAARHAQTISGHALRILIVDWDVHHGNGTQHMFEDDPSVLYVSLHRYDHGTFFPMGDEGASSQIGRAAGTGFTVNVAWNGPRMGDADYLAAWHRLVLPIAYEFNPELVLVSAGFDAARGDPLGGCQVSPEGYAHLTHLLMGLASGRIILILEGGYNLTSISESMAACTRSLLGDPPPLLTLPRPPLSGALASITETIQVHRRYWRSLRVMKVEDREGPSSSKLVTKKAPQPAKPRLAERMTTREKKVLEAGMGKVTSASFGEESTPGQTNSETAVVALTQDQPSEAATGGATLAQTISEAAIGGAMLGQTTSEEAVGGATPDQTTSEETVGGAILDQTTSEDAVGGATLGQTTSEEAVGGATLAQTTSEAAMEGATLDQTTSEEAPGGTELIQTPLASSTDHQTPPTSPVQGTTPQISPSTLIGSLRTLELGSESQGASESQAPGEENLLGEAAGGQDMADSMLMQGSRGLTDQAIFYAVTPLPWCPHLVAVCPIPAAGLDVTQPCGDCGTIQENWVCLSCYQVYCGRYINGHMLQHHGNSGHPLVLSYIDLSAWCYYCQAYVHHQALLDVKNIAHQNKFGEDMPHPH
Assay: HDAC6 enzyme inhibition assay (fluorimetric)
Assay type: biochemical
Settings: 3 hours preincubation with enzyme, fraction of positive control; for inhibition at 0.1 µM: read-out: HDAC6 % inh @ 0.1 μM; for inhibition at 0.3 µM: read-out: HDAC6 % inh @ 0.3 μM; for inhibition at 1 µM: read-out: HDAC6 % inh @ 1 μM
Method: A fluorimetric assay was used to determine the biochemical activity of the inhibitors on HDAC6 in 96-Well Half Area Black Microplates (Corning #3686)+TopSeal-A Black Sealing Film (Perkin Elmer #6050173). Test compounds were dissolved in DMSO. Half-log serial dilutions of test compounds were prepared in DMSO and then diluted 1:10 in assay buffer (BPS Bioscience #50031).
2.5 μL of enzyme (BPS Bioscience #50006) was incubated with 2.5 μL of test compounds for 3 hours in assay buffer with 0.1 mg/mL Bovine Serum Albumin (Sigma-Aldrich #A7030) at 21° C. in 22.5 μL total volume. The enzymatic reaction was started with the addition of 2.5 μL of a fluorogenic acetylated peptide substrate (BPS Bioscience #50037). The final concentration of enzyme and substrate in the reaction were 8.8 nM and 9 μM, respectively. After 45 minutes of incubation at 37° C., the addition of 25 μL of a development solution (BPS
Bioscience #50030) releases a fluorophore whose amount is proportional to the amount of the deacetylated product. Fluorescence intensity was measured after 15 minutes incubation at 21° C. with a Tecan Infinite F200 microplate reader (excitation 360 nm-emission 460 nm).
The negative control (background) was represented by the reaction mix in the absence of the enzyme (with 0.1% DMSO), while the positive control of deacetylase activity was obtained in the absence of test compounds (with 0.1% DMSO) after background subtraction. Percentage of inhibition was calculated as a fraction of the positive control.

| Compound | inhibition at 0.1 µM (0.1 μM test compound) | inhibition at 0.3 µM (0.3 μM test compound) | inhibition at 1 µM (1 μM test compound) | HDAC6 % inh @ 0.1 μM (0.1 μM test compound) | HDAC6 % inh @ 0.3 μM (0.3 μM test compound) | HDAC6 % inh @ 1 μM (1 μM test compound) |
| --- | --- | --- | --- | --- | --- | --- |
| Cn1c(C(=O)N2CCNCC2)cc2cc(-c3cc(-c4noc(C(F)(F)F)n4)ccn3)ncc21 [Example 4, (1-Methyl-5-(4-(5-(trifluoromethyl)-1,2,4-oxadiazol-3-yl)pyridin-2-yl)-1H-pyrrolo[2,3-c]pyridin-2-yl)(piperazin-1-yl)methanone] | 69% | 86% | 95% | – | – | – |
| COCCn1nc(-c2cc(-c3noc(C(F)(F)F)n3)ccn2)c2nccc(Cl)c21 [Example 5, 3-(2-(7-Chloro-1-(2-methoxyethyl)-1H-pyrazolo[4,3-b]pyridin-3-yl)pyridin-4-yl)-5-(trifluoromethyl)-1,2,4-oxadiazole] | 61% | 82% | 94% | – | – | – |
| CC1(C)C2CCC1(CS(=O)(=O)O)C(=O)C2.Cn1c(C(=O)N2CC[C@H](O)C2)cc2cc(-c3cc(-c4noc(C(F)(F)F)n4)ccn3)ncc21 [Example 6, (S)-(3-Hydroxypyrrolidin-1-yl)(1-methyl-5-(4-(5-(trifluoromethyl)-1,2,4-oxadiazol-3-yl)pyridin-2-yl)-1H-pyrrolo[2,3-c]pyridin-2-yl)methanone (+) Camphorsulfonate Salt] | – | – | – | 61% | 81% | 91% |
